Measurements published in patent US6469052B2, “Compounds for the photodecontamination of pathogens in blood” (Cerus Corporation, priority 1993, dated 2002).
Where two headings read alike, the source gives them in different places.

Columns and labels:
[1] = system: Salmonella typhimurium TA102; experiment: Ames assay (dark mutagenicity), strain TA102
Excerpt: (§1) The second property that is important in testing a compound for use in methods of the present invention is mutagenicity. The most widely used mutagen/carcinogen screening assay is the Ames test. This assay is described by D. M. Maron and B. N. Ames in Mutation Research 113: 173 ( 1983) and a specific screen is described in detail in Example 17, below. The Ames test utilizes several unique strains of Salmonella typhimurium that are histidine- dependent for growth and that lack the usual DNA repair enzymes. The frequency of normal mutations that render the bacteria independent of histidine (i.e., the frequency of spontaneous revertants) is low. The test allows one to evaluate the impact of a compound on this revertant frequency.
(§2) In this example the compounds of the present invention are tested for their dark mutagenicity using an Ames assay. The procedures used for the Salmonella mutagenicity test as described in detail by Maron and Ames were followed exactly. Maron, D. M. and B. N. Ames, Mutation Research 113: 173 ( 1983). A brief description for each procedure is given here. The tester strains TA97a, TA98, TA100, TA102, TA1537 and TA1538 were obtained from Dr. Ames. TA97a, TA98, TA1537 and TA1538 are frameshift tester strains. TA100 and TA102 are base-substitution tester strains. Upon receipt each strain was cultured under a variety of conditions to confirm the genotypes specific to the strains.
(§3) The first tests done with the strains were to determine the range of spontaneous reversion for each of the strains. With each mutagenicity experiment the spontaneous reversion of the tester strains to histidine independence was measured and expressed as the number of spontaneous revertants per plate. This served as the background controls.
(§4) For all experiments, the pre-incubation procedure was used. In this procedure one vial of each tester strain was thawed and 20 μL of this culture was added to 6 mL of Oxoid Nutrient Broth #2. This solution was allowed to shake for 10 hours at 37° C. In the pre-incubation procedure, 0.1 mL of this overnight culture was added to each of the required number of sterile test tubes. To half of the tubes 0.5 mL of a 10% S-9 solution containing Aroclor 1254 induced rat liver extract (Molecular Toxicology Inc., Annapolis, Md.), and MgCl2, KCl, glucose-6-phosphate, NADP, and sodium phosphate buffer (Sigma, St. Louis, Mo.) were added. To the other half of the tubes 0.5 mL of 0.2M sodium phospate buffer, pH 7.4, was used in place of the S-9 mixture (the -S9 samples). Finally 0.1 mL of the test solution containing either 0, 0.1, 0.5, 1, 5, 10, 50, 100, 250, or 500 μg/mL of the test compound was added. The 0.7 mL mixture was vortexed and then pre-incubated while shaking for 20 minutes at 37° C. After shaking, 2 mL of molten top agar supplemented with histidine and biotin were added to the 0.7 mL mixture and immediately poured onto a minimal glucose agar plate (volume of base agar was 20 mL). The top agar was allowed 30 minutes to solidify and then the plates were inverted and incubated for 44 hours at 37° C. After incubation the number of revertant colonies on each plate were counted. […] (“n” represents the number of replicates performed for each data point.)
(§5) Maron and Ames (1983) describe the conflicting views with regard to the statisical treatment of data generated from the test.

[2] = system: Salmonella typhimurium TA97a
Excerpt: as §1, §2, §3, §4, §5

[3] = system: Salmonella typhimurium TA1538; experiment: Ames assay (dark mutagenicity), strain TA1538
Excerpt: as §1, §2, §3, §4, §5

[4] = system: Salmonella typhimurium TA1537; experiment: Ames assay (dark mutagenicity), strain TA1537
Excerpt: as §1, §2, §3, §4, §5

[5] = system: Duck Hepatitis B Virus (DHBV); experiment: Inactivation of DHBV in platelet concentrate, PCR amplification readout; settings: 5J/CM^2 UVA
Protocol: This example describes the protocol for inactivation of Duck Hepatitis B Virus (DHBV), a model for Hepatitis B Virus, using compounds of the present invention. DHBV in duck yolk was added to platelet concentrate (PC) to a final concentration of 2×10^7 particles per mL and mixed by gentle rocking for ≧15 min. […] Samples, including controls without added psoralen, were irradiated with 5J/CM^2 UVA, with mixing at 1 J/cm^2 increments. After irradiation, leukocytes and platelets were separated from virus by centrifugation. […] Samples were extracted with phenol-chloroform and chloroform, followed by ethanol precipitation. […] PCR amplicons were generated using primers pairs DCD03/DCD05 (127 bp), DCD03/DCD06 (327 bp) and DCD03/DCD07 (1072 bp). PCR was performed in a standard PCR buffer containing 0.2 mM each deoxyribonucleoside 5′-triphosphates (dATP, dGTP, dCTP, and dTTP), […], and 0.5 units Taq polymerase per […]. 30 cycles of amplification were performed with the following thermal profile: 95° C. 30 sec, 60° C. 30 sec, 72° C. 1 min. The amplification was followed by a 7 min incubation at 72° C. to yield full length products. […] was added at an amount of […] in order to detect and quantify the resulting products. Products were separated by electrophoresis on denaturing polyacrylamide slab gels and counted. The absence of signal in a given reaction was taken to indicate effective inactivation of DHBV.

[6] = system: Chinese hamster ovary (CHO) cells; experiment: In vitro genotoxicity screen in CHO cells; assay type: cell-based; settings: approximately 3 hours exposure in the dark, dilutions 1-1000 μg/ml
Excerpt: The positive control was methylmethane sulfonate.
Coverslips were mounted with Permount.

mouse reticulocytes = settings: increased dose levels, male Balb/c mice, tail vein
Protocol: Male Balb/c mice were then injected with 0.1 ml of a compound solution via the tail vein. At least 3 mice were injected per dose level. Saline only was used as a negative control. For a positive control, cyclophosphamide (cycloPP) was administered at a dose of 30 mg/kg. In the experimental group, the injections were repeated once per day for four days. In the positive control group, the sample was administered only once, on day three. On day 5, several microliters of blood were withdrawn from each subject and smeared on a glass slide. Cells were fixed in absolute methanol and stored in a slide rack.
For analysis, cells were stained with acridine orange and visualized under a fluorescence microscope by counting: (i) the number of reticulocytes per 5000 erythrocytes; and (ii) the number of micronucleated reticulocytes per 1000 reticulocytes. Reticulocytes were distinguished by their red fluorescence due to the presence of RNA. Micronuclei were distinguished by their green fluorescence due to the presence of DNA. The percentage of reticulocytes (%PCE) was then calculated. A decrease in the frequency of […] in the percentage of reticulocytes, is an indication of bone marrow toxicity. The percentage of reticulocytes with micronuclei (%PCE with MN) was also calculated. An increase in %PCE with MN is a measure of clastogenicity.
After initial results were determined, the experiment was repeated using increased dose levels, until: (i) Micronucleus formation was seen; or (ii) Bone marrow toxicity was observed; or (ii) The lethal dose was reached; or (iv) A dose of 5 g/kg was administered.

[7] = system: GMP-140 (p-selectin) on platelets; experiment: Platelet function: GMP-140 expression (flow cytometry, CD62); assay type: cell-based, human; settings: 100 μM compound, 5 Joules/cm^2, 5 days storage
Protocol: (§6) To measure the effects of the present compounds and methods of decontamination on platelet function using these four indicators, four samples were prepared for each compound tested, two control samples and two containing compound. Three units of human platelets were obtained from the Sacramento Blood Center, Sacramento, Calif. These were each transferred under sterile conditions to 50 ml centrifuge tubes, then aliquots of each unit were transferred into a second set of 50 ml sterile centrifuge tubes. To each centrifuge tube containing platelet concentrate (PC), an aliquot of compound stock was added to reach a final concentration of 100 μM of compound. […] The samples were pipetted gently up and down to mix. Then aliquots (either 3 ml or 8 ml) of each sample was transferred to two sterile Teflon™ Medi-bags™ (American Fluoroseal Co., Silver Springs, Md.) (presently owned by The West Company, Lionville, Pa.). Samples were treated in one of two different sized bags, having either 3 ml or 8 ml capacity. […] For each compound tested, two control samples without compound were prepared by again removing aliquots of platelet concentrate (17 ml if using an 8 ml bag, […] if using a 3 ml bag) from the same one of the first set of 50 ml centrifuge tubes from which the compound sample was drawn, and dividing into Medibags, as before. One of each pair of Medibags containing a compound, and one of each pair of control Medibags, were illuminated for 5 Joules/cm^2 on the device described in Example 1, above. Then all experimental and control Medibags were placed on a platelet shaker for storage for 5 days. The same experiments were repeated several times to obtain more statistically meaningful data, as represented by “n”, the number of data points represented, in the graphs of FIGS. 21-24, discussed below.

human platelets = settings: 100 μM compound, 5 Joules/cm^2, 5 days storage
Protocol: as §6
A Sysmex cell counter was used to measure platelet count in the platelet samples. Samples were diluted 1:3 in blood bank saline.

[8] = system: Salmonella typhimurium TA98; experiment: Ames assay (dark mutagenicity), strain TA98
Excerpt: as §1, §2, §3, §4, §5

[9] = system: Salmonella tester strains TA97a, TA98, TA100, TA102, TA1537 and TA1538; experiment: Ames assay, overall assessment over the tester strains
Excerpt: as §1, §2, §3
For all experiments, the pre-incubation procedure was used. In this procedure one vial of each tester strain was thawed and 20 μL of this culture was added to 6 mL of Oxoid Nutrient Broth #2. This solution was allowed to shake for 10 hours at 37° C. In the pre-incubation procedure, 0.1 mL of this overnight culture was added to each of the required number of sterile test tubes. To half of the tubes 0.5 mL of a 10% S-9 solution containing Aroclor 1254 induced rat liver extract (Molecular Toxicology Inc., Annapolis, Md.), and MgCl2, KCl, glucose-6-phosphate, NADP, and sodium phosphate buffer (Sigma, St. Louis, Mo.) were added. To the other half of the tubes 0.5 mL of 0.2M sodium phospate buffer, pH 7.4, was used in place of the S-9 mixture (the -S9 samples). Finally 0.1 mL of the test solution containing either 0, 0.1, 0.5, 1, 5, 10, 50, 100, 250, or 500 μg/mL of the test compound was added. […] After incubation the number of revertant colonies on each plate were counted. […]

HIV-1 = settings: concentrations of 64 μM of compound or higher
Protocol: Pathogen inactivation efficiency of several compounds of the present invention was evaluated by examining the ability of the compounds to inactivate cell-free virus (HIV). Inactivation of cell-free HIV was performed as follows.
As in the R17 assay, small aliquots of the compounds listed in TABLES 10 and 11, below, at the concentrations listed in the table, were added to stock HIV-1 to a total of 0.5 mL. The stock HIV (10^5-10^7 plaque forming units/mL) was in DMEM/15% FBS. […] Controls included HIV-1 stock only, HIV-1 plus UVA only, and HIV-1 plus the highest concentration of each psoralen tested, with no UVA. Post irradiation, all samples were stores frozen at −70° C. until assayed for infectivity by a microtiter plaque assay. Aliquots for measurement of residual HIV infectivity in the samples treated with a compound of the present invention were withdrawn and cultured.
Residual HIV infectivity was assayed using an MT-2 infectivity assay. […] After 24 to 48 hours, the red fluorescence-stained microplaques were visualized by placing the plates on an 8,000 μW/cm^2 304 nm UV light box (Fotodyne, Inc., New Berlin, Wis.). The plaques were counted at a magnification of ×20 to ×25 through a stereomicroscope.

[10] = system: Salmonella typhimurium TA100
Excerpt: as §1, §2, §3, §4, §5

Cc1oc2c(C)c3oc(=O)cc(C)c3cc2c1CN [AMT, 4′-Aminomethyl-4,5′,8-trimethylpsoralen, reference compound]
revertants per plate ([1]; TA102 +S9, 0.1 μg/plate): −20
revertants per plate ([1]; TA102 +S9, 0.5 μg/plate): 5
revertants per plate ([1]; TA102 +S9, 1 μg/plate): −17
revertants per plate ([1]; TA102 +S9, 5 μg/plate): 51
revertants per plate ([2]; TA97a −S9, 0.1 μg/plate): 14
revertants per plate ([2]; TA97a −S9, 0.5 μg/plate): 9
revertants per plate ([2]; TA97a −S9, 1 μg/plate): 54
revertants per plate ([2]; TA97a −S9, 5 μg/plate): 73
dose at which frameshift mutagenicity was shown ([3]; TA1538): 1 μg/plate
revertants per plate ([3]; TA1538 −S9, 0.1 μg/plate): 3
revertants per plate ([3]; TA1538 −S9, 0.5 μg/plate): 4
revertants per plate ([3]; TA1538 −S9, 1 μg/plate): 4
revertants per plate ([3]; TA1538 −S9, 5 μg/plate): 13
revertants per plate ([3]; TA1538 −S9, 10 μg/plate): 14
dose at which frameshift mutagenicity was shown ([4]; TA1537): 5 μg/plate
revertants per plate ([4]; TA1537 +S9, 100 μg/plate): 500
PCR amplification of the 1072 bp DHBV amplicon [5]: a signal could be detected
PCR amplification of the 1072 bp DHBV amplicon ([5]; 70 and 100 mM levels): inhibited PCR amplification
genotoxic (toxic) concentration [6]: 30 µg/mL

Cc1cc(=O)oc2c(C)c3oc(CNCCCCN)c(C)c3cc12 [Compound 17, 5′-(6-amino-2-aza)hexyl-4,4′,8-trimethylpsoralen]
outcome of dose escalation in the micronucleus assay (mouse reticulocytes): the acutely lethal dose was reached before there were any signs of bone marrow toxicity or micronucleus formation
GMP-140 expression: sample treated with light and psoralen (PCD) versus day 5 untreated control (D5) [7]: little or no difference
platelet count compared with samples treated with light alone (human platelets): higher platelet count than samples treated with light alone

Cc1cc(=O)oc2c(C)c3oc(COCCN)c(C)c3cc12 [Compound 18, 5′-(4-amino-2-oxa)butyl-4,4′,8-trimethylpsoralen]
revertants per plate ([8]; TA98 +S9, 10 μg/plate): 8
revertants per plate ([8]; TA98 +S9, 50 μg/plate): 6
revertants per plate ([8]; TA98 +S9, 100 μg/plate): 26
revertants per plate ([8]; TA98 +S9, 200 μg/plate): 42
revertants per plate ([8]; TA98 −S9, 10 μg/plate): 21
revertants per plate ([8]; TA98 −S9, 50 μg/plate): 303
revertants per plate ([8]; TA98 −S9, 100 μg/plate): 390
revertants per plate ([8]; TA98 −S9, 200 μg/plate): 225
mutagenic response compared with AMT ([9]; in the absence of S9): higher in the absence of S9, but still was significantly below that of AMT
mutagenic response ([9]; in the presence of S9 in strains TA 9o and TA 1537): only a weak response at high concentrations
outcome of dose escalation in the micronucleus assay (mouse reticulocytes): the acutely lethal dose was reached before there were any signs of bone marrow toxicity or micronucleus formation
GMP-140 expression: sample treated with light and psoralen (PCD) versus day 5 untreated control (D5) [7]: notable increase above the control
revertants per plate ([4]; TA1537 +S9, 10 μg/plate): 8
revertants per plate ([4]; TA1537 +S9, 50 μg/plate): 6
revertants per plate ([4]; TA1537 +S9, 100 μg/plate): 26
revertants per plate ([4]; TA1537 +S9, 200 μg/plate): 42
revertants per plate ([4]; TA1537 −S9, 10 μg/plate): 21
revertants per plate ([4]; TA1537 −S9, 50 μg/plate): 303
revertants per plate ([4]; TA1537 −S9, 100 μg/plate): 390
revertants per plate ([4]; TA1537 −S9, 200 μg/plate): 225
platelet count compared with samples treated with light alone (human platelets): higher platelet count than samples treated with light alone

Cc1oc2c(C)c3oc(=O)cc(C)c3cc2c1CCN [Compound 3, 4′-(2-aminoethyl)-4,5′,8-trimethylpsoralen]
mutagenicity (overall) ([9]; strains tested: TA100 and TA1538, ±S9, 5 and 10 μg/plate): no mutagenicity
HIV inactivation activity compared with AMT (HIV-1): significantly more active than AMT
revertants per plate ([10]; TA100 +S9, 5 μg/plate): −19
revertants per plate ([10]; TA100 +S9, 10 μg/plate): 8
revertants per plate ([3]; TA1538 −S9, 5 μg/plate): 0
revertants per plate ([3]; TA1538 −S9, 10 μg/plate): −6
